# According to ChEMBL document CHEMBL3885881, “DrugMatrix”:
# Species: Rattus norvegicus
# Assay: DrugMatrix - Regimen: Daily Repeat
# Type: toxicity, organism-based, Sprague-Dawley
# Parameters: regimen Daily Repeat, gender Male, age 6-8 weeks
# Conditions: in vivo, po, route oral GAVAGE, […]; for ABSOLUTE BASOPHIL / ABSOLUTE EOSINOPHIL / ABSOLUTE LYMPHOCYTE / ABSOLUTE SEGMENTED NEUTROPHIL / BASOPHIL / EOSINOPHIL / ERYTHROCYTE COUNT / HEMATOCRIT / HEMOGLOBIN / LYMPHOCYTE / MEAN CORPUSCULAR HEMOGLOBIN / MEAN CORPUSCULAR HEMOGLOBIN CONCENTRATION / MEAN CORPUSCULAR VOLUME / MONOCYTE / NUCLEATED RED BLOOD CELLS / PLATELET COUNT: tissue Blood; for ALANINE AMINOTRANSFERASE / ALBUMIN / ALKALINE PHOSPHATASE / ASPARTATE AMINOTRANSFERASE / BLOOD UREA NITROGEN / CARBON DIOXIDE / CHOLESTEROL / CREATINE PHOSPHOKINASE / CREATININE / GLUCOSE / LACTATE DEHYDROGENASE / POTASSIUM / SODIUM / TOTAL BILIRUBIN / TOTAL PROTEIN / URIC ACID: tissue Plasma
# [1] = 20 mg/kg, 120 h, dose level Low, time 5 day
# [2] = 2000 mg/kg, 72 h, dose level High, time 3 day
# [3] = 2000 mg/kg, 120 h, dose level High, time 5 day
structure (smiles),measurement,setting,value
COc1ccccc1OCCNCC(O)COc1cccc2[nH]c3ccccc3c12 (stereo unspecified) [CARVEDILOL],ABSOLUTE BASOPHIL,[1],0 CELLS/uL
same,ABSOLUTE EOSINOPHIL,[1],48 CELLS/uL
same,ABSOLUTE LYMPHOCYTE,[1],6685 CELLS/uL
same,ABSOLUTE SEGMENTED NEUTROPHIL,[1],615 CELLS/uL
same,BASOPHIL,[1],0%
same,EOSINOPHIL,[1],0.67%
same,ERYTHROCYTE COUNT,[1],5.51 x10E6/uL
same,HEMATOCRIT,[1],34.9%
same,HEMOGLOBIN,[1],13.3 G/DL
same,LYMPHOCYTE,[1],90.33%
same,MEAN CORPUSCULAR HEMOGLOBIN,[1],24.17 pg
same,MEAN CORPUSCULAR HEMOGLOBIN CONCENTRATION,[1],38.13 G/DL
same,MEAN CORPUSCULAR VOLUME,[1],63.4 fL
same,MONOCYTE,[1],0.67%
same,NUCLEATED RED BLOOD CELLS,[1],0.33 /100WBC
same,PLATELET COUNT,[1],1008 x10E3/uL
same,ALANINE AMINOTRANSFERASE,[1],58.33 u/L
same,ALBUMIN,[1],3.93 G/DL
same,ALKALINE PHOSPHATASE,[1],439.33 u/L
same,ASPARTATE AMINOTRANSFERASE,[1],81.67 u/L
same,BLOOD UREA NITROGEN,[1],15 mg/dL
same,CARBON DIOXIDE,[1],30.67 mmol/L
same,CHOLESTEROL,[1],57 mg/dL
same,CREATINE PHOSPHOKINASE,[1],167.67 u/L
same,CREATININE,[1],0.13 mg/dL
same,GLUCOSE,[1],153.67 mg/dL
same,LACTATE DEHYDROGENASE,[1],137 u/L
same,POTASSIUM,[1],5.49 MEQ/L
same,SODIUM,[1],144.75 MEQ/L
same,TOTAL BILIRUBIN,[1],0.23 mg/dL
same,TOTAL PROTEIN,[1],5.63 G/DL
same,URIC ACID,[1],0.5 mg/dL
same,ABSOLUTE BASOPHIL,[2],0 CELLS/uL
same,ABSOLUTE EOSINOPHIL,[2],24.67 CELLS/uL
same,ABSOLUTE LYMPHOCYTE,[2],8554.33 CELLS/uL
same,ABSOLUTE SEGMENTED NEUTROPHIL,[2],841.33 CELLS/uL
same,BASOPHIL,[2],0%
same,EOSINOPHIL,[2],0.33%
same,ERYTHROCYTE COUNT,[2],5.87 x10E6/uL
same,HEMATOCRIT,[2],36.37%
same,HEMOGLOBIN,[2],13.9 G/DL
same,LYMPHOCYTE,[2],88%
same,MEAN CORPUSCULAR HEMOGLOBIN,[2],23.67 pg
same,MEAN CORPUSCULAR HEMOGLOBIN CONCENTRATION,[2],38.23 G/DL
same,MEAN CORPUSCULAR VOLUME,[2],61.93 fL
same,MONOCYTE,[2],1.67%
same,NUCLEATED RED BLOOD CELLS,[2],0 /100WBC
same,PLATELET COUNT,[2],1204 x10E3/uL
same,ALANINE AMINOTRANSFERASE,[2],147 u/L
same,ALBUMIN,[2],3.83 G/DL
same,ALKALINE PHOSPHATASE,[2],433.33 u/L
same,ASPARTATE AMINOTRANSFERASE,[2],253.67 u/L
same,BLOOD UREA NITROGEN,[2],12.33 mg/dL
same,CARBON DIOXIDE,[2],35.67 mmol/L
same,CHOLESTEROL,[2],135.33 mg/dL
same,CREATINE PHOSPHOKINASE,[2],315.33 u/L
same,CREATININE,[2],0.15 mg/dL
same,GLUCOSE,[2],110.33 mg/dL
same,LACTATE DEHYDROGENASE,[2],180 u/L
same,POTASSIUM,[2],4.83 MEQ/L
same,SODIUM,[2],143.43 MEQ/L
same,TOTAL BILIRUBIN,[2],0.27 mg/dL
same,TOTAL PROTEIN,[2],5.7 G/DL
same,URIC ACID,[2],0.7 mg/dL
same,ABSOLUTE BASOPHIL,[3],0 CELLS/uL
same,ABSOLUTE EOSINOPHIL,[3],92.67 CELLS/uL
same,ABSOLUTE LYMPHOCYTE,[3],7992.67 CELLS/uL
same,ABSOLUTE SEGMENTED NEUTROPHIL,[3],4483.67 CELLS/uL
same,BASOPHIL,[3],0%
same,EOSINOPHIL,[3],0.67%
same,ERYTHROCYTE COUNT,[3],7.13 x10E6/uL
same,HEMATOCRIT,[3],41.5%
same,HEMOGLOBIN,[3],15.4 G/DL
same,LYMPHOCYTE,[3],64.67%
same,MEAN CORPUSCULAR HEMOGLOBIN,[3],21.77 pg
same,MEAN CORPUSCULAR HEMOGLOBIN CONCENTRATION,[3],37.27 G/DL
same,MEAN CORPUSCULAR VOLUME,[3],58.43 fL
same,MONOCYTE,[3],1.67%
same,NUCLEATED RED BLOOD CELLS,[3],0 /100WBC
same,PLATELET COUNT,[3],1163.67 x10E3/uL
same,ALANINE AMINOTRANSFERASE,[3],380 u/L
same,ALBUMIN,[3],3.27 G/DL
same,ALKALINE PHOSPHATASE,[3],444.33 u/L
same,ASPARTATE AMINOTRANSFERASE,[3],620.33 u/L
same,BLOOD UREA NITROGEN,[3],39.33 mg/dL
same,CARBON DIOXIDE,[3],27 mmol/L
same,CHOLESTEROL,[3],132.33 mg/dL
same,CREATINE PHOSPHOKINASE,[3],3005.33 u/L
same,CREATININE,[3],0.42 mg/dL
same,GLUCOSE,[3],124 mg/dL
same,LACTATE DEHYDROGENASE,[3],673.67 u/L
same,POTASSIUM,[3],6.23 MEQ/L
same,SODIUM,[3],138.53 MEQ/L
same,TOTAL BILIRUBIN,[3],0.4 mg/dL
same,TOTAL PROTEIN,[3],5.33 G/DL
same,URIC ACID,[3],1.5 mg/dL
